Measured values as given in US20130023002A1, “USE OF A SUBSTRATE IN A METHOD FOR MEASURING THE ACTIVITY OF AVAILABLE PROTEOLYTIC ENZYMES” (priority 2011, published 2013).

What was measured:
[1] = test system: unfractionated calcium heparin Calciparine® (anti-Xa activity, factor Xa); test: Evaluation of neutralization of unfractionated heparin by enzyme substrates (anti-Xa activity, para-nitroaniline chromogenic substrate); format: biochemical; conditions: FIG. 1, qualitative
Source text: (§1) Before referring to the diagrams of the figures, the evaluation method used to quantify the neutralizing effect of the proteolytic enzyme substrates with respect to the glycosaminoglycans in a blood sample, and in particular a plasma, will be described. This evaluation method makes it possible to use both unfractionated heparins and low-molecular-weight heparins. In addition, the method endeavors to test the activity of factor Xa, located at the crossroads of two enzymatic cascades resulting in the formation of thrombin. Moreover, antithrombin, which is a natural inhibitor of thrombin generation, controls the reaction. As soon as it appears, factor Xa couples to its natural substrate, prothrombin, so as to form thrombin. The heparin contained in the sample forms, itself, a complex with antithrombin, which complex promotes the inhibition of factor Xa.
Thus, a chromogenic substrate based on para-nitroaniline, which factor Xa hydrolyzes, is used and the release of the para-nitroaniline, which can be measured optically, is then inversely proportional to the concentration of heparin present in the medium. […]
In this first example, the heparin used is an unfractionated calcium heparin sold under the brand name: “Calciparine®”. According to the evaluation method, the anti-Xa activity is recorded and transferred onto the y-axis, as a function of the heparin concentration of the medium. […]

[2] = test system: low-molecular-weight heparin, Fragmine® (anti-Xa activity, factor Xa); test: Evaluation of neutralization of low-molecular-weight heparin by enzyme substrates (anti-Xa activity); format: biochemical
Source text: as §1
Thus, a chromogenic substrate based on para-nitroaniline, which factor Xa hydrolyzes, is used and the release of the para-nitroaniline, which can be measured optically, is then inversely proportional to the concentration of heparin present in the medium. A measurement of the anti-Xa activity is thus deduced therefrom.
More specifically, the percentage neutralization by the substrate is determined as being the ratio of the difference in the variation in anti-Xa activity in the medium containing the physiological saline and in the medium containing the substrate, between two heparin concentrations, and only the variation in activity in the medium containing the physiological saline, between the same two heparin concentrations, this ratio being multiplied by 100 in order to obtain the result as percentage neutralization.
The percentage neutralization can also be written more compactly: 100×(1−ΔA1/ΔA2), wherein ΔA1 corresponds to the variation in activity in the presence of substrate and ΔA2 to the variation in the presence of physiological saline. Thus, the parallel measurement of the variation in the presence of physiological saline makes it possible to establish the reference in each series of measurements.
Still in this first part of the description, the abovementioned evaluation method was implemented with a low-molecular-weight heparin, Fragmine®.
The results of the percentage neutralization of this heparin for the three substrate variants described above, V(1), V(2) and V(3), have been reported in the table below.

Row | percentage neutralization ([2]; Fragmine® 0.42 IU/ml) [%] | percentage neutralization ([2]; Fragmine® 0.83 IU/ml) [%] | percentage neutralization ([2]; Fragmine® 1.25 IU/ml) [%] | percentage neutralization ([2]; Fragmine® 1.67 IU/ml) [%] | Substance | effect of substrate with respect to heparin (curve compared with physiological saline) [1]
1 | – | – | – | – | Z-GGR-AMC | no notable effect with respect to heparin
2 | 10 | 12 | 13 | 15 | EtM-VR-Rhod110-Ac [V(1)] | –
